Measurements from PMC10313368 (The Journal of Clinical Investigation, 2023).
“And” between values parts separate entries of the source, which are not always exact repeats. Equal entries are not always repeated.

Experiments:
[1] = tested on: HIF-regulated vasoactive mediators; assay: mRNA expression of HIF-regulated vasoactive mediators in retina of STZ-induced diabetic mice (qPCR); assay type: in vivo, mouse; conditions: STZ mice, replicates; for Angptl4 mRNA / Vegfa mRNA: S Figure 3B; for Angpt2 mRNA / Ptprb mRNA: S Figure 3C
Protocol: Reverse transcription and quantitative real-time PCR. Total RNA was isolated from cultured cells or retinas with PureLinkTM RNA Mini Kit (Invitrogen #12183025), and cDNA was prepared with MuLV Reverse Transcriptase (Applied Biosystems). Quantitative real-time PCR was performed with Power SYBR Green PCR Master Mix (Applied Biosystems) and MyiQ Real-Time PCR Detection System (Bio-Rad). Normalization was done using cyclophilin A for mouse tissue and human cell lines. Primers are listed in Supplemental Table 2. […]
STZ-induced diabetes mouse model. 8-to-10 week-old male mice received an IP injection of STZ at 40 mg/kg of body weight in 0.1M of citrate buffer (pH 4.5) for 5 consecutive days. Normal chow and 10% sucrose water were provided during this period. 10% sucrose was discontinued and replaced with regular water on experimental day 6. Blood glucose was measured on experimental day 28 after 16 hours fasting and mice with blood glucose level > 250 mg/dL were considered […]
Intraperitoneal (IP) injections. […]

[2] = molecular target: T1, HIF-1α (Mus musculus, UniProt Q61221); assay: Western blot of HIF-1α protein accumulation in retina of OIR mice (P13); assay type: in vivo
T1 construct: from tissue; host or cells: retina of C57BL/6 OIR pups
Protocol: Immunoblot assays. Cells, neurosensory retina, and D120 retinal organoid lysates were subjected to 4–15% gradient SDS/PAGE (Invitrogen). Immunoblot (Western blot or WB) assays were performed as previously described (1).
Reverse transcription and quantitative real-time PCR. Total RNA was isolated from cultured cells or retinas with PureLinkTM RNA Mini Kit (Invitrogen #12183025), and cDNA was prepared with MuLV Reverse Transcriptase (Applied Biosystems). Quantitative real-time PCR was performed with Power SYBR Green PCR Master Mix (Applied Biosystems) and MyiQ Real-Time PCR Detection System (Bio-Rad). Normalization was done using cyclophilin A for mouse tissue and human cell lines. Primers are listed in Supplemental Table 2.
Angiogenesis array. […]
cDNA was prepared with QuantiTect® Reverse Transcription Kit (Qiagen, Cat# 205311). […]
4444554). […] The data were analyzed by using HPRT1 as endogenous […]
HUVEC cells, Euclidean distance was used to quantify the difference in qPCR screening. The Euclidean distance was calculated using “dist” function from R’s default stat library that measures the distance between 2 vectors (i.e., total qPCR expression values in control and treatment). […]
STZ-induced diabetes mouse model. […] Blood glucose was measured on experimental day 28 after 16 hours fasting and mice with blood glucose level > 250 mg/dL were considered […]

T1 sequence (Q61221 whole entry): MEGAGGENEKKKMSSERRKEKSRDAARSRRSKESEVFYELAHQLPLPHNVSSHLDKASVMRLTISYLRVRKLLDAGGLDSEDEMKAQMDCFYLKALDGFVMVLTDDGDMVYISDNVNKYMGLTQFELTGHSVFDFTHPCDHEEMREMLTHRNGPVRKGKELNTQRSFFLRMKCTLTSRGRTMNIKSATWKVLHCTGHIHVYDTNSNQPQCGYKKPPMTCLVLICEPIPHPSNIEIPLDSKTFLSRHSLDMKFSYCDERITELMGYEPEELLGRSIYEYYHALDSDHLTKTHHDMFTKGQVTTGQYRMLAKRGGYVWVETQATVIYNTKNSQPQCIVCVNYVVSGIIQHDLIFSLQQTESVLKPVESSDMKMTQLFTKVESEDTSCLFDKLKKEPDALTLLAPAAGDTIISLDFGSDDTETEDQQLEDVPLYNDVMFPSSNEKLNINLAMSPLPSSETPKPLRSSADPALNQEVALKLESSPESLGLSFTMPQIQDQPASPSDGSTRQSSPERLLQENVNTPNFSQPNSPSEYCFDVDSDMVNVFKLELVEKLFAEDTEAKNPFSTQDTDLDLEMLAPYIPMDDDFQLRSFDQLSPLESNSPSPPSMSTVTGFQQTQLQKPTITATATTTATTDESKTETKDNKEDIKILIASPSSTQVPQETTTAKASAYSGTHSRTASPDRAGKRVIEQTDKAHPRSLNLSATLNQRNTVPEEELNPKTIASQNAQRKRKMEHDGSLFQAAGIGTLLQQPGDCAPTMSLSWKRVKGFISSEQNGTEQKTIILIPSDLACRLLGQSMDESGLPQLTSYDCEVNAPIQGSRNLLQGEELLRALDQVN

Brc1ccc2c(-c3csc(-c4c[nH]c5c(Br)cccc45)n3)c[nH]c2c1 [32-134D, 4-(6-bromo-1H-indol-3-yl)-2-(7-bromo-1H-indol-3-yl)thiazole]
Angptl4 mRNA ([1]; 40mg/kg i.p., 40 mg/kg): 0.6634 and 0.674 and 0.6653
Vegfa mRNA ([1]; 40mg/kg i.p., 40 mg/kg): 1.885 and 1.498 and 1.761
Angptl4 mRNA ([1]; 80mg/kg i.p., 80 mg/kg): 0.5186 and 0.5762 and 0.6276
Vegfa mRNA ([1]; 80mg/kg i.p., 80 mg/kg): 1.453 and 1.442 and 1.52
Angpt2 mRNA ([1]; 40mg/kg i.p., 40 mg/kg): 0.559 and 0.5248 and 0.5704
Ptprb mRNA ([1]; 40mg/kg i.p., 40 mg/kg): 0.7022 and 0.6022 and 0.6973
Angpt2 mRNA ([1]; 80mg/kg i.p., 80 mg/kg): 0.5647 and 0.5575 and 0.5047
Ptprb mRNA ([1]; 80mg/kg i.p., 80 mg/kg): 0.8502 and 0.8904 and 0.75
HIF-1α protein accumulation in OIR mice ([2]; single i.p. injection 20 mg/kg, P13): reduction
accumulation of HIF-1α in OIR mice ([2]; single intraocular injection 14 ng at P12, P13): effectively reduced
